Assay results taken from patent publication US20250115595A1, “INHIBITORS OF HYPOXIA-INDUCIBLE FACTORS” (The Johns Hopkins University, priority 2021, published 2025).

Tested on: cytokine mRNAs
Assay: RT-qPCR array of mouse cytokines and chemokines in Hepa1-6 tumors
Format: in vivo
Conditions: Hepa1-6 tumors, vs vehicle
Description: Total RNA from Hepa1-6 tumors was analyzed using the RT2 Profiler PCR Array of Mouse Cytokines and Chemokines (Qiagen, catalog number 330231 PAMM-150ZA) according to the manufacturer's instructions.

Brc1ccc2c(-c3csc(-c4c[nH]c5c(Br)cccc45)n3)c[nH]c2c1 [Compound 32-134D, 4-(6-bromo-1H-indol-3-yl)-2-(7-bromo-1H-indol-3-yl)thiazole]
Adipoq mRNA Fold Change Test Group/Control Group: 0.43
Adipoq mRNA Fold Up- or Down-Regulation Test Group/Control Group: −2.31
Adipoq mRNA X axis (Log2(fold change)): −1.21
Bmp2 mRNA Fold Change Test Group/Control Group: 0.51
Bmp2 mRNA Fold Up- or Down-Regulation Test Group/Control Group: −1.95
Bmp2 mRNA X axis (Log2(fold change)): −0.96
Bmp4 mRNA Fold Change Test Group/Control Group: 0.64
Bmp4 mRNA Fold Up- or Down-Regulation Test Group/Control Group: −1.96
Bmp4 mRNA X axis (Log2(fold change)): −0.64
Bmp6 mRNA Fold Change Test Group/Control Group: 0.44
Bmp6 mRNA Fold Up- or Down-Regulation Test Group/Control Group: −2.27
Bmp6 mRNA X axis (Log2(fold change)): −1.18
Bmp7 mRNA Fold Change Test Group/Control Group: 0.70
Bmp7 mRNA Fold Up- or Down-Regulation Test Group/Control Group: −1.43
Bmp7 mRNA X axis (Log2(fold change)): −0.51
Cc15 mRNA Fold Change Test Group/Control Group: 0.92
Cc15 mRNA Fold Up- or Down-Regulation Test Group/Control Group: −1.09
Cc15 mRNA X axis (Log2(fold change)): −0.13
Cc120 mRNA Fold Change Test Group/Control Group: 0.42
Cc120 mRNA Fold Up- or Down-Regulation Test Group/Control Group: −2.41
Cc120 mRNA X axis (Log2(fold change)): −1.27
Ccl1 mRNA Fold Change Test Group/Control Group: 0.63
Ccl1 mRNA Fold Up- or Down-Regulation Test Group/Control Group: −1.58
Ccl1 mRNA X axis (Log2(fold change)): −0.66
Ccl2 mRNA Fold Change Test Group/Control Group: 1.35
Ccl2 mRNA Fold Up- or Down-Regulation Test Group/Control Group: 1.35
Ccl2 mRNA X axis (Log2(fold change)): 0.44
Ccl3 mRNA Fold Change Test Group/Control Group: 1.06
Ccl3 mRNA Fold Up- or Down-Regulation Test Group/Control Group: 1.06
Ccl3 mRNA X axis (Log2(fold change)): 0.09
Ccl4 mRNA Fold Change Test Group/Control Group: 0.72
Ccl4 mRNA Fold Up- or Down-Regulation Test Group/Control Group: −1.39
Ccl4 mRNA X axis (Log2(fold change)): −0.47
Ccl7 mRNA Fold Change Test Group/Control Group: 1.03
Ccl7 mRNA Fold Up- or Down-Regulation Test Group/Control Group: 1.03
Ccl7 mRNA X axis (Log2(fold change)): 0.04
Ccl11 mRNA Fold Change Test Group/Control Group: 1.03
Ccl11 mRNA Fold Up- or Down-Regulation Test Group/Control Group: 1.03
Ccl11 mRNA X axis (Log2(fold change)): 0.04
Ccl12 mRNA Fold Change Test Group/Control Group: 4.11
Ccl12 mRNA Fold Up- or Down-Regulation Test Group/Control Group: 4.11
Ccl12 mRNA X axis (Log2(fold change)): 2.04
Ccl17 mRNA Fold Change Test Group/Control Group: 0.68
Ccl17 mRNA Fold Up- or Down-Regulation Test Group/Control Group: −1.47
Ccl17 mRNA X axis (Log2(fold change)): −0.56
Ccl19 mRNA Fold Change Test Group/Control Group: 0.54
Ccl19 mRNA Fold Up- or Down-Regulation Test Group/Control Group: −1.86
Ccl19 mRNA X axis (Log2(fold change)): −0.89
Ccl22 mRNA Fold Change Test Group/Control Group: 0.31
Ccl22 mRNA Fold Up- or Down-Regulation Test Group/Control Group: −3.18
Ccl22 mRNA X axis (Log2(fold change)): −1.67
Ccl24 mRNA Fold Change Test Group/Control Group: 1.21
Ccl24 mRNA Fold Up- or Down-Regulation Test Group/Control Group: 1.21
Ccl24 mRNA X axis (Log2(fold change)): 0.27
Cd40lg mRNA Fold Change Test Group/Control Group: 0.52
Cd40lg mRNA Fold Up- or Down-Regulation Test Group/Control Group: −1.91
Cd40lg mRNA X axis (Log2(fold change)): −0.93
Cd70 mRNA Fold Change Test Group/Control Group: 0.24
Cd70 mRNA Fold Up- or Down-Regulation Test Group/Control Group: −4.19
Cd70 mRNA X axis (Log2(fold change)): −2.07
Cntf mRNA Fold Change Test Group/Control Group: 0.38
Cntf mRNA Fold Up- or Down-Regulation Test Group/Control Group: −2.61
Cntf mRNA X axis (Log2(fold change)): −1.39
Csf1 mRNA Fold Change Test Group/Control Group: 1.02
Csf1 mRNA Fold Up- or Down-Regulation Test Group/Control Group: 1.02
Csf1 mRNA X axis (Log2(fold change)): 0.03
Csf2 mRNA Fold Change Test Group/Control Group: 0.38
Csf2 mRNA Fold Up- or Down-Regulation Test Group/Control Group: −2.64
Csf2 mRNA X axis (Log2(fold change)): −1.40
Csf3 mRNA Fold Change Test Group/Control Group: 0.50
Csf3 mRNA Fold Up- or Down-Regulation Test Group/Control Group: −1.99
Csf3 mRNA X axis (Log2(fold change)): −0.99
Ctf1 mRNA Fold Change Test Group/Control Group: 0.19
Ctf1 mRNA Fold Up- or Down-Regulation Test Group/Control Group: −5.18
Ctf1 mRNA X axis (Log2(fold change)): −2.37
Cx3cl1 mRNA Fold Change Test Group/Control Group: 0.53
Cx3cl1 mRNA Fold Up- or Down-Regulation Test Group/Control Group: −1.89
Cx3cl1 mRNA X axis (Log2(fold change)): −0.92
Cxcl1 mRNA Fold Change Test Group/Control Group: 0.67
Cxcl1 mRNA Fold Up- or Down-Regulation Test Group/Control Group: 1.49
Cxcl1 mRNA X axis (Log2(fold change)): −0.57
Cxcl3 mRNA Fold Change Test Group/Control Group: 0.87
Cxcl3 mRNA Fold Up- or Down-Regulation Test Group/Control Group: −1.14
Cxcl3 mRNA X axis (Log2(fold change)): −0.19
Cxcl5 mRNA Fold Change Test Group/Control Group: 1.05
Cxcl5 mRNA Fold Up- or Down-Regulation Test Group/Control Group: 1.05
Cxcl5 mRNA X axis (Log2(fold change)): 0.07
Cxcl9 mRNA Fold Change Test Group/Control Group: 1.64
Cxcl9 mRNA Fold Up- or Down-Regulation Test Group/Control Group: 1.64
Cxcl9 mRNA X axis (Log2(fold change)): 0.71
Cxcl10 mRNA Fold Change Test Group/Control Group: 1.44
Cxcl10 mRNA Fold Up- or Down-Regulation Test Group/Control Group: 1.44
Cxcl10 mRNA X axis (Log2(fold change)): 0.53
Cxcl11 mRNA Fold Change Test Group/Control Group: 0.45
Cxcl11 mRNA Fold Up- or Down-Regulation Test Group/Control Group: −2.24
Cxcl11 mRNA X axis (Log2(fold change)): −1.16
Cxcl12 mRNA Fold Change Test Group/Control Group: 2.26
Cxcl12 mRNA Fold Up- or Down-Regulation Test Group/Control Group: 2.26
Cxcl12 mRNA X axis (Log2(fold change)): 1.17
Cxcl13 mRNA Fold Change Test Group/Control Group: 0.39
Cxcl13 mRNA Fold Up- or Down-Regulation Test Group/Control Group: −2.57
Cxcl13 mRNA X axis (Log2(fold change)): −1.36
Cxcl16 mRNA Fold Change Test Group/Control Group: 0.61
Cxcl16 mRNA Fold Up- or Down-Regulation Test Group/Control Group: −1.65
Cxcl16 mRNA X axis (Log2(fold change)): −0.72
Fasl mRNA Fold Change Test Group/Control Group: 0.59
Fasl mRNA Fold Up- or Down-Regulation Test Group/Control Group: −1.70
Fasl mRNA X axis (Log2(fold change)): −0.77
Gpi1 mRNA Fold Change Test Group/Control Group: 0.64
Gpi1 mRNA Fold Up- or Down-Regulation Test Group/Control Group: −1.57
Gpi1 mRNA X axis (Log2(fold change)): −0.65
Hc mRNA Fold Change Test Group/Control Group: 1.77
Hc mRNA Fold Up- or Down-Regulation Test Group/Control Group: 1.77
Hc mRNA X axis (Log2(fold change)): 0.82
Lif mRNA Fold Change Test Group/Control Group: 0.40
Lif mRNA Fold Up- or Down-Regulation Test Group/Control Group: −2.48
Lif mRNA X axis (Log2(fold change)): −1.31
Lta mRNA Fold Change Test Group/Control Group: 0.34
Lta mRNA Fold Up- or Down-Regulation Test Group/Control Group: −2.96
Lta mRNA X axis (Log2(fold change)): −1.57
Ltb mRNA Fold Change Test Group/Control Group: 0.63
Ltb mRNA Fold Up- or Down-Regulation Test Group/Control Group: −1.58
Ltb mRNA X axis (Log2(fold change)): −0.66
Mif mRNA Fold Change Test Group/Control Group: 1.12
Mif mRNA Fold Up- or Down-Regulation Test Group/Control Group: 1.12
Mif mRNA X axis (Log2(fold change)): 0.17
Mstn mRNA Fold Change Test Group/Control Group: 0.21
